{"source": "patent US20070010671A1", "about": "“Novel quinazoline derivatives and methods of treatment related to the use thereof” (priority 2003, published 2007)"}
{"molecular_target": "MCH receptor (Homo sapiens, UniProt Q99705)", "test": "High throughput functional screening FLIPR/FDSS6000: inhibition of MCH-evoked intracellular Ca2+ changes", "format": "cell-based", "conditions": "class by percent of control at 10^-7 M or IC50", "how_it_was_run": "(§1)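 Seed cells the day before, then load them with Fluo4-AM for one hour at 37° C and wash in HEPES-buffered HBSS, pH 7.4. Add compound for 3 min, then stimulate with 50 nM MCH. Monitor the calcium transient for 290 s.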"}
{"smiles": "CN(C)c1nc(N[C@H]2CC[C@@H](NC(=S)Nc3ccc(Oc4ccccc4)nc3)CC2)nc2ccccc12", "note": "[compound 404]", "class": "3 (Class 3: The value of percent of control at 10^−7 M was more than 60% or the value of IC50 was more than 200 nM.)"}
{"smiles": "Cc1ccccc1CNC(=S)NC[C@H]1CC[C@@H](Nc2nc(N(C)C)c3ccccc3n2)CC1", "note": "[compound 727]", "class": "3 (Class 3: The value of percent of control at 10^−7 M was more than 60% or the value of IC50 was more than 200 nM.)"}
{"smiles": "Cc1ccc(C)c(NC(=S)NC[C@H]2CC[C@@H](Nc3nc(N(C)C)c4ccccc4n3)CC2)c1", "note": "[compound 783, N-[(cis-4-{[4-(dimethylamino)quinazolin-2-yl]amino}cyclohexyl)methyl]-N′-(2,5-dimethylphenyl)thiourea]", "class": "2 (Class 2: The value of percent of control at 10^−7 M was from 40% to 60% or the value of IC50 was from 50 nM to 200 nM.)"}
{"smiles": "CN(C)c1nc(N[C@H]2CC[C@@H](CNC(=S)NCC3CCCCC3)CC2)nc2ccccc12", "note": "[compound 710, N-(cyclohexylmethyl)-N′-[(cis-4-{[4-(dimethylamino)quinazolin-2-yl]amino}cyclohexyl)methyl]thiourea]", "class": "2 (Class 2: The value of percent of control at 10^−7 M was from 40% to 60% or the value of IC50 was from 50 nM to 200 nM.)"}
{"smiles": "CN(C)c1nc(N[C@H]2CC[C@@H](NC(=S)NCc3ccccc3Cl)CC2)nc2ccccc12", "note": "[compound 254, N-(2-chlorobenzyl)-N′-(cis-4-{[4-(dimethylamino)quinazolin-2-yl]amino}cyclohexyl)thiourea]", "class": "1 (Class 1: The value of percent of control at 10^−7 M was less than 40% or the value of IC50 was less than 50 nM.)"}
{"smiles": "CN(C)c1nc(N[C@H]2CC[C@@H](CNC(=O)NCc3ccccc3F)CC2)nc2ccccc12", "note": "[compound 499, N-[(cis-4-{[4-(dimethylamino)quinazolin-2-yl]amino}cyclohexyl)methyl]-N′-(2-fluorobenzyl)urea]", "class": "2 (Class 2: The value of percent of control at 10^−7 M was from 40% to 60% or the value of IC50 was from 50 nM to 200 nM.)"}
{"smiles": "CCc1cccc(NC(=O)NC[C@H]2CC[C@@H](Nc3nc(N(C)C)c4ccccc4n3)CC2)c1", "note": "[compound 531, N-[(cis-4-{[4-(dimethylamino)quinazolin-2-yl]amino}cyclohexyl)methyl]-N′-(3-ethylphenyl)urea]", "class": "2 (Class 2: The value of percent of control at 10^−7 M was from 40% to 60% or the value of IC50 was from 50 nM to 200 nM.)"}
{"smiles": "COc1ccc(C(=O)NC(=S)N[C@H]2CC[C@@H](Nc3nc(N(C)C)c4ccccc4n3)CC2)cc1", "note": "[compound 321]", "class": "3 (Class 3: The value of percent of control at 10^−7 M was more than 60% or the value of IC50 was more than 200 nM.)"}
{"smiles": "COc1cc(OC)c(NC(=O)NC[C@H]2CC[C@@H](Nc3nc(N(C)C)c4ccccc4n3)CC2)cc1Cl", "note": "[compound 563]", "class": "3 (Class 3: The value of percent of control at 10^−7 M was more than 60% or the value of IC50 was more than 200 nM.)"}
{"smiles": "CN(C)c1nc(N[C@H]2CC[C@@H](CNC(=O)Nc3ccc(C(F)(F)F)cc3)CC2)nc2ccccc12", "note": "[compound 536]", "class": "3 (Class 3: The value of percent of control at 10^−7 M was more than 60% or the value of IC50 was more than 200 nM.)"}
{"smiles": "CN(C)c1nc(N[C@H]2CC[C@@H](CNC(=S)Nc3ccccc3Cl)CC2)nc2ccccc12", "note": "[compound 626]", "class": "3 (Class 3: The value of percent of control at 10^−7 M was more than 60% or the value of IC50 was more than 200 nM.)"}
{"smiles": "CN(C)c1nc(N[C@H]2CC[C@@H](CNC(=S)NC3CC3)CC2)nc2ccccc12", "note": "[compound 712]", "class": "3 (Class 3: The value of percent of control at 10^−7 M was more than 60% or the value of IC50 was more than 200 nM.)"}
{"smiles": "CN(C)c1nc(N[C@H]2CC[C@@H](CNC(=S)NC3C[C@@H]4CC[C@H]3C4)CC2)nc2ccccc12", "note": "(stereo partly drawn) [compound 663, N-[(1S,4R)-bicyclo[2.2.1]hept-2-yl]-N′-[(cis-4-{[4-(dimethylamino)quinazolin-2-yl]amino}cyclohexyl)methyl]thiourea]", "class": "2 (Class 2: The value of percent of control at 10^−7 M was from 40% to 60% or the value of IC50 was from 50 nM to 200 nM.)"}
{"smiles": "CN(C)c1nc(N[C@H]2CC[C@@H](CNC(=S)Nc3cccc([N+](=O)[O-])c3)CC2)nc2ccccc12", "note": "[compound 612]", "class": "3 (Class 3: The value of percent of control at 10^−7 M was more than 60% or the value of IC50 was more than 200 nM.)"}
{"smiles": "Cc1cc(NC(=S)N[C@H]2CC[C@@H](Nc3nc(N(C)C)c4ccccc4n3)CC2)ccc1Br", "note": "[compound 312]", "class": "3 (Class 3: The value of percent of control at 10^−7 M was more than 60% or the value of IC50 was more than 200 nM.)"}
{"smiles": "COC(=O)c1scc(C)c1NC(=S)N[C@H]1CC[C@@H](Nc2nc(N(C)C)c3ccccc3n2)CC1", "note": "[compound 381]", "class": "1 (Class 1: The value of percent of control at 10^−7 M was less than 40% or the value of IC50 was less than 50 nM.)"}
{"smiles": "CN(C)c1nc(N[C@H]2CC[C@@H](NC(=S)Nc3ccc(S(N)(=O)=O)cc3)CC2)nc2ccccc12", "note": "[compound 319]", "class": "3 (Class 3: The value of percent of control at 10^−7 M was more than 60% or the value of IC50 was more than 200 nM.)"}
{"molecular_target": "MCH receptor (Homo sapiens, UniProt Q99705)", "test": "High throughput functional screening FLIPR/FDSS6000: inhibition of MCH-evoked intracellular Ca2+ changes", "format": "cell-based", "conditions": "class by percent of control at 10^-7 M or by IC50; read-out: class", "how_it_was_run": "as §1", "units": {"IC50": "nM"}}
{"smiles": "Cc1noc(C)c1NC(=S)NC[C@H]1CC[C@@H](Nc2nc(N(C)C)c3ccccc3n2)CC1", "note": "[compound 817]", "IC50": "> 200"}
{"smiles": "CN(C)c1nc(N[C@H]2CC[C@@H](NC(=O)Oc3ccc(Br)cc3)CC2)nc2ccccc12", "note": "[compound 850]", "IC50": "> 200"}
{"smiles": "CN(C)c1nc(N[C@H]2CC[C@@H](NC(=O)Nc3ccc4c(c3)CCC4)CC2)nc2ccccc12", "note": "[compound 839]", "IC50": "> 200"}
{"smiles": "CN(C)c1nc(N[C@H]2CC[C@@H](NC(=O)Nc3cc(F)cc(F)c3)CC2)nc2ccccc12", "note": "[compound 125, N-(3,5-difluorophenyl)-N′-(cis-4-{[4-(dimethylamino)quinazolin-2-yl]amino}cyclohexyl)urea]", "IC50": "50 to 200"}
{"smiles": "CCCCCCCCOC(=O)NC[C@H]1CC[C@@H](Nc2nc(N(C)C)c3ccccc3n2)CC1", "note": "[compound 873]", "IC50": "> 200"}
{"smiles": "Cc1ccc(C)c(NC(=O)N[C@H]2CC[C@@H](Nc3nc(N(C)C)c4ccccc4n3)CC2)c1", "note": "[compound 82]", "IC50": "> 200"}
{"smiles": "CN(C)c1nc(N[C@H]2CC[C@@H](NC(=O)Nc3ccc(F)c(F)c3)CC2)nc2ccccc12", "note": "[compound 123, N-(3,4-difluorophenyl)-N′-(cis-4-{[4-(dimethylamino)quinazolin-2-yl]amino}cyclohexyl)urea]", "IC50": "50 to 200"}
{"smiles": "CN(C)c1nc(N[C@H]2CC[C@@H](NC(=O)Nc3c(Cl)cccc3C(F)(F)F)CC2)nc2ccccc12", "note": "[compound 89, N-[2-chloro-6-(trifluoromethyl)phenyl]-N′-(cis-4-{[4-(dimethylamino)quinazolin-2-yl]amino}cyclohexyl)urea]", "IC50": "< 50"}
{"molecular_target": "MCH receptor (Homo sapiens, UniProt Q99705)", "test": "High throughput functional screening FLIPR/FDSS6000: inhibition of MCH-evoked intracellular Ca2+ changes", "format": "cell-based", "conditions": "class by percent of control at 10^−7 M or by IC50; read-out: class", "how_it_was_run": "as §1", "units": {"IC50": "nM"}}
{"smiles": "C[C@@H](NC(=O)[C@H]1CC[C@@H](Nc2nc(N(C)C)c3ccccc3n2)CC1)c1ccc(Cl)cc1", "note": "[Example 1139, cis-N-[(1R)-1-(4-chlorophenyl)ethyl)-4-{[4-(dimethylamino)quinazolin-2-yl]amino}cyclohexanecarboxamide]", "IC50": "< 50"}
{"smiles": "CN(C)c1nc(N[C@H]2CC[C@@H](NC(=O)[C@H](O)c3cccc(Cl)c3)CC2)nc2ccccc12", "note": "[Example 1111, (2R)-2-(3-chlorophenyl)-N-(cis-4-{[4-(dimethylamino)-quinazolin-2-yl]amino}cyclohexyl)-2-hydroxyacetamide]", "IC50": "< 50"}
